According to ChEMBL document CHEMBL1743341, “Cytochrome p450 enzymes mechanism based inhibitors: common sub-structures and reactivity” (Curr Drug Metab, 2005):

Columns and labels:
Cytochrome P450 3A4 [1] = target: T1, Cytochrome P450 3A4 (Homo sapiens, UniProt P08684); test: Mechanism based inhibition of human cytochrome P450 3A4 measured by lovastatin 6'-beta hydroxylase activity; type: ADME
Cytochrome P450 2D6 = Cytochrome P450 2D6 (Homo sapiens, UniProt P10635); test: (§1) Mechanism based inhibition of human cytochrome P450 2D6 measured by dextromethorphan O-demethylation using human liver microsomes; type: ADME, Microsome
Chain of Cytochrome P450 2D6 (P10635 whole entry): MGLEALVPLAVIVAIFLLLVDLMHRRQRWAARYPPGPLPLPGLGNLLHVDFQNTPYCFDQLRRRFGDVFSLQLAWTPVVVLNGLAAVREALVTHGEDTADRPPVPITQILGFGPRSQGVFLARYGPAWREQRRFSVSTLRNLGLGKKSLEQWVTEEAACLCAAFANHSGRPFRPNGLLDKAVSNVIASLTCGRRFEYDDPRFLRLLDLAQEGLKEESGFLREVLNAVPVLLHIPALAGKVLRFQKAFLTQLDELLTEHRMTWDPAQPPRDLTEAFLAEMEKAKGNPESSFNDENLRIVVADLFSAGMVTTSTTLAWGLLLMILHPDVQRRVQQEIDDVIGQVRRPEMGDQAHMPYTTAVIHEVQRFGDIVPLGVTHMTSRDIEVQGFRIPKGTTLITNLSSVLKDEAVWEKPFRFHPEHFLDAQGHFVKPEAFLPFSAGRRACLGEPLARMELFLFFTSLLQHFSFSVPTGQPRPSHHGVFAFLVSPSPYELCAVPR

CYP2D6 = CYP2D6 (Homo sapiens, UniProt P10635); test: as §1; type: ADME, Microsome; settings: human, human liver microsomes, probe dextromethorphan
Chain of CYP2D6 (P10635 whole entry): as above

CYP3A4 = CYP3A4 (Homo sapiens, UniProt P08684); test: (§2) Mechanism based inhibition of human cytochrome P450 3A4 measured by nifedipine oxidation, omeprazole 3-hydroxylation and omeprazole sulfoxydation; type: ADME; settings: human
Chain of CYP3A4 (P08684 whole entry): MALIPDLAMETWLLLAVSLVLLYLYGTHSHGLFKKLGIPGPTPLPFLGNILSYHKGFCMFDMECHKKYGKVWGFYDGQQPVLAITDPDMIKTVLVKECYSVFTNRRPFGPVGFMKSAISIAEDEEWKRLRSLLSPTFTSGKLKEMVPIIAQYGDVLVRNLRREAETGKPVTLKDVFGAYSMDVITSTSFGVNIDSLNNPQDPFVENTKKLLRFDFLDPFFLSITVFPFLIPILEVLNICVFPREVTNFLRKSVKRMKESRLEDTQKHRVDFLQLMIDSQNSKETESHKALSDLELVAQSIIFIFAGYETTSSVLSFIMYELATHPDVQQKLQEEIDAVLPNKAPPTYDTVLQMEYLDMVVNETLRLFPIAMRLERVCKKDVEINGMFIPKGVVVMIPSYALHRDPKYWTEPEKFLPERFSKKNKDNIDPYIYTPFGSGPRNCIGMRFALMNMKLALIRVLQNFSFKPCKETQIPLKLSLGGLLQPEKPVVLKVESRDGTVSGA

Cytochrome P450 3A4 [2] = target: T1, Cytochrome P450 3A4; test: as §2; type: ADME
Cytochrome P450 3A4 [3] = target: T1, Cytochrome P450 3A4; test: Mechanism based inhibition of human cytochrome P450 3A4 measured by testosterone 6-beta hydroxylation; type: ADME
Cytochrome P450 2B1 [4] = target: T2, Cytochrome P450 2B1 (Rattus norvegicus, UniProt P00176); test: Mechanism based inhibition of rat cytochrome P450 CYP2B1 measured by androstenedione 16-beta-hydroxylation and R- and S- warfarin hydroxylation; type: ADME
T2 sequence (P00176 whole entry): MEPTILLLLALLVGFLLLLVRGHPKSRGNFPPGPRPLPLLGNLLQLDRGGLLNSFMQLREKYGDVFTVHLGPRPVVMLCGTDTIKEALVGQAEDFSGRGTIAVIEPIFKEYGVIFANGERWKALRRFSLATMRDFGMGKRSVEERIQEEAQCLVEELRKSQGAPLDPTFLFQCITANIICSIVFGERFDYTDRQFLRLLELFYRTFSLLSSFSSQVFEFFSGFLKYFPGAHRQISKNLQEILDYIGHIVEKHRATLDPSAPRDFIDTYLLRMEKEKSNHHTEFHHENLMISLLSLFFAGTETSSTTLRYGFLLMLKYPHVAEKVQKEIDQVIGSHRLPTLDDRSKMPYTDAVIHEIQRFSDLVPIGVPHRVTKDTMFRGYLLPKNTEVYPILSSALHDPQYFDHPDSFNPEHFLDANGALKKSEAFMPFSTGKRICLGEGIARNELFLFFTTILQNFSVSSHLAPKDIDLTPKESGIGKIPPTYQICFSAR

[5] = target: Cytochrome P450 2E1 (Oryctolagus cuniculus) (UniProt P08682); test: Mechanism based inhibition of rabbit cytochrome P450 CYP2E1 measured by 7-EFC O-deethylation activity; settings: probe 7-EFC (O-deethylation)
Chain of Cytochrome P450 2E1 (Oryctolagus cuniculus) (P08682 whole entry, looked up): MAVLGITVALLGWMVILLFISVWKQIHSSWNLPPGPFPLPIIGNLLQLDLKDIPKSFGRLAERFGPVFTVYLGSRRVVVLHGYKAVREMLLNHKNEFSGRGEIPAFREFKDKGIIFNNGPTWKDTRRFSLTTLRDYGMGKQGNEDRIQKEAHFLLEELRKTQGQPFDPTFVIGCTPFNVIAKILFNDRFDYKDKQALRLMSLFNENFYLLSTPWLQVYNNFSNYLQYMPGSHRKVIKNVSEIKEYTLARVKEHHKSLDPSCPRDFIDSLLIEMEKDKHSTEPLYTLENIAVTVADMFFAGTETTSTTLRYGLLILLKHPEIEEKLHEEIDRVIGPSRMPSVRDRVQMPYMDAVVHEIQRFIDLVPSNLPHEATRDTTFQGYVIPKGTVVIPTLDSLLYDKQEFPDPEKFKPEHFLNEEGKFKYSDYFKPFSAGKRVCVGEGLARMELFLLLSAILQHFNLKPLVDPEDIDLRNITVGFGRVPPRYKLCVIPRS

CYP2B4 = target: T3, CYP2B4 (Oryctolagus cuniculus, UniProt P00178); test: (§3) Mechanism based inhibition of rabbit cytochrome P450 CYP2B4 measured by 7-EFC O-deethylation activity; type: ADME; settings: rabbit, probe 7-EFC (O-deethylation)
T3 sequence (P00178 whole entry): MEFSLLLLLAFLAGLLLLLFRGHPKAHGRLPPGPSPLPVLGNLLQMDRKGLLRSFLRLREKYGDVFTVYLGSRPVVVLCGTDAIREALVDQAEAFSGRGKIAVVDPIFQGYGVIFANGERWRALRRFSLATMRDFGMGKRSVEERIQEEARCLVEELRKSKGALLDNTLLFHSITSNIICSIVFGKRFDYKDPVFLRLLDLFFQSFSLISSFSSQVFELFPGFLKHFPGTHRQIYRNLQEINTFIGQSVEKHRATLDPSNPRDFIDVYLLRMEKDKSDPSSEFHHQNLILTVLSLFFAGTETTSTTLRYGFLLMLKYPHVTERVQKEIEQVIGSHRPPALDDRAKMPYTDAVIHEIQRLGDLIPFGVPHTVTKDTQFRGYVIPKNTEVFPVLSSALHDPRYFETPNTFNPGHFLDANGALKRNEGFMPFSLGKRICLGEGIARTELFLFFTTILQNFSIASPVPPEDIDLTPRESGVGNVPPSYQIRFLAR

Cytochrome P450 2B4 [6] = target: T4, Cytochrome P450 2B4 (Oryctolagus cuniculus, UniProt P00178); test: as §3; type: ADME
T4 sequence (P00178 whole entry): T3 sequence (P00178 whole entry)

Cytochrome P450 2B1 [7] = target: T2, Cytochrome P450 2B1; test: Mechanism based inhibition of rat cytochrome P450 CYP2B1 partition ratio; type: ADME
CYP1A2 [8] = target: T5, CYP1A2 (Rattus norvegicus, UniProt P04799); test: (§4) Mechanism based inhibition of rat cytochrome P450 CYP1A2 measured by 7-methoxyresorufin O-demethylation (MROD); type: ADME; settings: rat, probe 7-methoxyresorufin (O-demethylation, MROD)
T5 sequence (P04799 whole entry): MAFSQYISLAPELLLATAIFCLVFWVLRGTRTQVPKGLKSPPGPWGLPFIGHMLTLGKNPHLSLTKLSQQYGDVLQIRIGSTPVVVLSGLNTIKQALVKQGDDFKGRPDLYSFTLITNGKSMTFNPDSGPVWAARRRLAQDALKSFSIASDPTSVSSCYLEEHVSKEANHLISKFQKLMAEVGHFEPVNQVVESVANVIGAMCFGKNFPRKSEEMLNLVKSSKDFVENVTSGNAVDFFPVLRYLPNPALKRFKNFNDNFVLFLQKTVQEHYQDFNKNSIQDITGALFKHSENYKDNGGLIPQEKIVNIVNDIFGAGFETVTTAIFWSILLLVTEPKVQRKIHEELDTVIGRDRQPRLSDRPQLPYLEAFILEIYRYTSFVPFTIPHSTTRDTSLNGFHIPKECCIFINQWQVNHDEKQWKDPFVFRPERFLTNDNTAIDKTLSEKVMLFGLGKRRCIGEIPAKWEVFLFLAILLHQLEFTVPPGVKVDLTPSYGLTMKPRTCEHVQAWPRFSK

Cytochrome P450 1A2 = target: T6, Cytochrome P450 1A2 (Rattus norvegicus, UniProt P04799); test: as §4; type: ADME
T6 sequence (P04799 whole entry): T5 sequence (P04799 whole entry)

CYP2B1 = target: T7, CYP2B1 (Rattus norvegicus, UniProt P00176); test: (§5) Mechanism based inhibition of rat cytochrome P450 CYP2B1 measured by 7-pentoxyresorufin […] activity (PROD); type: ADME; settings: rat, probe 7-pentoxyresorufin ([…], PROD)
T7 sequence (P00176 whole entry): T2 sequence (P00176 whole entry)

Cytochrome P450 2B1 [9] = target: T2, Cytochrome P450 2B1; test: as §5; type: ADME
Cytochrome P450 2B4 [10] = target: T4, Cytochrome P450 2B4; test: Mechanism based inhibition of rabbit cytochrome P450 CYP2B4 partition ratio; type: ADME
CYP1A2 [11] = target: T8, CYP1A2 (Homo sapiens, UniProt P05177); test: Mechanism based inhibition of human cytochrome P450 1A2; type: ADME
T8 sequence (P05177 whole entry): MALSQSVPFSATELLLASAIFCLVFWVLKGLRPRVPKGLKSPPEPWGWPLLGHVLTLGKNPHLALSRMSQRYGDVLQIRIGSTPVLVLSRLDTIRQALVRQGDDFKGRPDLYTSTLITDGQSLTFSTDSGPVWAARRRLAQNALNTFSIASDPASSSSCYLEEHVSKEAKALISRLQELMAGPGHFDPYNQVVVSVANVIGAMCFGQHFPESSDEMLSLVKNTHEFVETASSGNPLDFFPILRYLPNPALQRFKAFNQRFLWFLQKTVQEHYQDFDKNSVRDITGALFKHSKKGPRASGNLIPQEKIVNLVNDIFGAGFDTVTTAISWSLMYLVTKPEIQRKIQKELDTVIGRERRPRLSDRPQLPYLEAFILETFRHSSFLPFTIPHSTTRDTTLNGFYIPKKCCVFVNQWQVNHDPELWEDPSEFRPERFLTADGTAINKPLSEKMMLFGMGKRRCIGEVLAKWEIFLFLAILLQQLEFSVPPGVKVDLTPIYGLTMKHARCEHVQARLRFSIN

T1 sequence (P08684 whole entry): as the sequence (P08684 whole entry) above

In the case of `O=C(NC(/C=C/S(=O)(=O)c1ccccc1)CCc1ccccc1)C(Cc1ccccc1)NC(=O)N1CCOCC1` (centres undefined), the mechanism based inhibition (Cytochrome P450 3A4 [1]) is reported as “Cytochrome P450 mechanistic inhibitor: PMID 11038163”.

Work on `Fc1cnc(N2CCN(CC3=NC(c4ccccc4)=NC3)CC2)nc1` yielded a Ki (Cytochrome P450 2D6) of 4800 nM and a kinact (CYP2D6) of 0.00233 s⁻¹.

In the case of `C=C(C)C(CC/C(C)=C/COc1c2ccoc2cc2oc(=O)ccc12)OC(C)(C)C(O)CC/C(C)=C/COc1c2ccoc2cc2oc(=O)ccc12` (centres undefined), the kinact (CYP3A4) is reported as 0.000833 s⁻¹, the Ki (Cytochrome P450 3A4 [2]) is reported as 310 nM and the mechanism based inhibition (Cytochrome P450 3A4 [3]) is reported as “Cytochrome P450 mechanistic inhibitor: PMID 10859150”.

`O=C(NCCc1ccc(Br)cc1)C(F)Cl` (centres undefined) was tested, and the mechanism based inhibition (Cytochrome P450 2B1 [4]) was “Cytochrome P450 mechanistic inhibitor: PMID 1971568”.

`O=C(NCCc1ccc([N+](=O)[O-])cc1)C(F)Cl` (centres undefined) was tested, and the mechanism based inhibition (Cytochrome P450 2B1 [4]) was “Cytochrome P450 mechanistic inhibitor: PMID 1971568”.

For `C#CC(C)(C)C`, the kinact [5] was 0.00333 s⁻¹, the kinact (CYP2B4) was 0.00383 s⁻¹ and the Ki (Cytochrome P450 2B4 [6]) was 75000 nM.

`C#Cc1ccc2ccc(=O)oc2c1` gave a partition_ratio (Cytochrome P450 2B1 [7]) of 25.

`C#Cc1cc2ccccc2c2ccccc12` was tested, and the kinact (CYP1A2 [8]) was 0.000667 s⁻¹, the Ki (Cytochrome P450 1A2) was 30 nM and the kinact (CYP2B1) was 0.0075 s⁻¹. The Ki (Cytochrome P450 2B1 [9]) was 140 nM.

`C#CCN(C)C(C)CCCCC.C#CCN[C@@H](C)CCCCC.C#CCN[C@H](C)CCCCC` (centres undefined) gave a kinact (CYP2B1) of 0.00133 s⁻¹ and a Ki (Cytochrome P450 2B1 [9]) of 800 nM.

With `C#CC(C)OC(C)(C)C` (centres undefined) the partition_ratio (Cytochrome P450 2B4 [10]) was 12, the kinact [5] was 0.002 s⁻¹ and the kinact (CYP2B4) was 0.0533 s⁻¹. The Ki (Cytochrome P450 2B4 [6]) was 37000 nM and the mechanism based inhibition (Cytochrome P450 2B4 [6]; rabbit) was “Cytochrome P450 mechanistic inhibitor: PMID 15751959”.

Molecule `Cc1nc2c([nH]1)c(=O)n(C)c(=O)n2CC1CCCCC1` has a kinact (CYP1A2 [11]) of 0.0148 s⁻¹.
